From paper PMC12123458, “Unraveling Small Molecule-Mediated Sirtuin 3 Activation at a Distinct Binding Site for Cardioprotective Therapies” (ACS Central Science, 2025)

What was measured:
SIRT3 = molecular target: T1, SIRT3 (Homo sapiens, UniProt Q9NTG7); experiment: Fluor de Lys (FDL) fluorimetric SIRT3 deacetylase activity assay; type: biochemical
T1 construct: purchased Enzo Life Sciences BML-AK557-0001
T1 sequence (Q9NTG7 1-399): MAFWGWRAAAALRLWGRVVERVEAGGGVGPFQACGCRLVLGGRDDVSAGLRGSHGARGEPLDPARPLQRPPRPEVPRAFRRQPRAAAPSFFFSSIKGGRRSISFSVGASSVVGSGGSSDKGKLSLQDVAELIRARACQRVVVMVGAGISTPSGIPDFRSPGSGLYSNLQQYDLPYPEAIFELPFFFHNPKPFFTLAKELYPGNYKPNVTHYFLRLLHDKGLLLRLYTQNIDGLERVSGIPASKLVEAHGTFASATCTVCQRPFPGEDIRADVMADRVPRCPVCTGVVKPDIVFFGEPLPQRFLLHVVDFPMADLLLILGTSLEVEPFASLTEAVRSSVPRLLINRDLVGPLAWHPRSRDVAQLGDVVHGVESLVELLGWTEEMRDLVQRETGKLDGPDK
Procedure: The SIRT3 activity was assessed using the Enzo Life Sciences kit (BML-AK557-0001) per the protocol provided. A 10 μM fluoro-acetylated p53 peptide and 500 μM NAD^+ were added to SIRT3 assay buffer, incubated with test compounds and 0.5 μg recombinant SIRT3 at 37 °C for 30 min. In the mass spectrometry (MS) assay, 5 μM hSirt3 was reacted with 0.25 mM peptide and 1.25 mM NAD^+, with or without 10 μM SKLB-11A in 2% DMSO, at 37 °C. Controls included 2% DMSO without SKLB-11A. The reaction was halted at defined intervals using 5 mM nicotinamide, and the mixture then underwent filtration and subjected to nano LC-MS/MS analysis. Acetylated Peptide: MnSOD-K122 ([…]-Ac).

SIRT5 [1] = molecular target: T2, SIRT5 (Homo sapiens, UniProt Q9NXA8); experiment: Coupled enzymatic assay, succinylated CPS1-K537 substrate; type: biochemical; settings: 100 μM
T2 sequence (Q9NXA8 37-310): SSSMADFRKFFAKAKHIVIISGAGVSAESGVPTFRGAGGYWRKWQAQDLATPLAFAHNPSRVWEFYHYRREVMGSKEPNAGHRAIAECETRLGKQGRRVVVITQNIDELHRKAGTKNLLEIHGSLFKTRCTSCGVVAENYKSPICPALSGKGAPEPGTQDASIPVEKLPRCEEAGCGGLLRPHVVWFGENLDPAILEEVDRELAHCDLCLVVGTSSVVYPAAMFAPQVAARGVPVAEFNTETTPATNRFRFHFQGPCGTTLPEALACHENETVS
From the text: Additionally, we used surface plasmon resonance (SPR) to measure the binding of SKLB-11A to immobilized SIRT3. […] We next evaluated the selectivity of SKLB-11A for different SIRT family members. […] We next examined the functional specificity of SKLB-11A using coupled enzymatic assays with isoform-specific, physiologically relevant substrates: acetylated p53-K381 for SIRT1, acetylated α-tubulin-K25 for SIRT2, acetylated MnSOD-K122 for SIRT3, and succinylated CPS1-K537 for SIRT5 (Supplementary Table S3). […] Using Schrödinger molecular docking simulations, we assessed the binding interactions of SKLB-11A with SIRT isoforms.

SIRT2 = molecular target: T3, SIRT2 (Rattus norvegicus, UniProt Q5RJQ4); experiment: CETSA of SIRT2 in H9c2 cells; type: cell-based
T3 construct: endogenous in cells; host or cells: H9c2
T3 sequence (Q5RJQ4 1-350): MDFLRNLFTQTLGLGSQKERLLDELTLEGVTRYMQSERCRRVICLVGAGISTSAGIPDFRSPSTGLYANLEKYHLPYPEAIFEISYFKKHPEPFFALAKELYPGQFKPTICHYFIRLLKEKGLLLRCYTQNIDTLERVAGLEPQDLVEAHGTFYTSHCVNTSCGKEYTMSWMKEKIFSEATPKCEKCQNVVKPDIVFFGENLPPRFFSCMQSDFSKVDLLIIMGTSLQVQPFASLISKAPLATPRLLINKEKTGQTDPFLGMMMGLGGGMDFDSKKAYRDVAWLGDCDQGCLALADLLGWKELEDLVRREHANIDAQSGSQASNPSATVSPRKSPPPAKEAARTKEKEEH

SIRT5 [2] = molecular target: T4, SIRT5 (Rattus norvegicus, UniProt Q68FX9); experiment: CETSA of SIRT5 in H9c2 cells; type: cell-based
T4 construct: endogenous in cells; host or cells: H9c2
T4 sequence (Q68FX9 37-310): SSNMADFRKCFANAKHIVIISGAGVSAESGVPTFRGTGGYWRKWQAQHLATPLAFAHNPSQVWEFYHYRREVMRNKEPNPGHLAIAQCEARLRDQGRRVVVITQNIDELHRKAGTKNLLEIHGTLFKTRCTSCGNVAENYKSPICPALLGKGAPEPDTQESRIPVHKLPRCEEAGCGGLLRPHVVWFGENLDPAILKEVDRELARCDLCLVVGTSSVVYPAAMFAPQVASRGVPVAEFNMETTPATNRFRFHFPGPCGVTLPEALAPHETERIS

H9c2 cells = experiment: Intracellular ROS (DCFH-DA) and mitochondrial membrane potential (JC-1) in Dox-treated H9c2 cells; type: cell-based
Procedure: Mitochondrial membrane potential and reactive oxygen species (ROS) levels within cells were assessed using the JC-1 Mitochondrial Membrane Potential Assay Kit (Beyotime, Beijing, China) and the DCFH-DA probe (Beyotime, Shanghai, China), respectively, following the manufacturer’s guidelines. , For mitochondrial membrane potential quantification, cells were treated with JC-1 solution and incubated for 20 min at 37 °C in the dark. ROS quantification involved a 25 min incubation at 37 °C in the dark with DCFH-DA solution. Postincubation, cells underwent three gentle washes with prewarmed buffer. Visualization was achieved using a Nikon (Ni-E) fluorescence microscope and quantified by flow cytometry (BD FACS Calibur).

COC(=O)c1c(N)n(Cc2ccc(F)cc2)c2nc3ccccc3nc12 [SKLB-11A, Methyl 2-amino-1-(4-fluorobenzyl)-1H-pyrrolo[2,3-b]quinoxaline-3-carboxylate]
% effect @ 100 µM of SIRT3 (SIRT3; 100 µM, FDL deacetylation assay, compared to the control group, mean ± SD): maintained or enhanced the activity | activity at 100 µM (SIRT3; 0.5 h, 100 µM, FDL deacetylation assay, compared to the control group, mean ± SD, read-out: % effect @ 100 µM of SIRT3): 188.1 ± 1.58% | SIRT3 activation compared with other SIRT3 activators (SIRT3; FDL assay): better SIRT3 activation | EC50 (SIRT3; FDL assay, read-out: EC50, SIRT3 deacetylation activity): 22 ± 1.57 µM | effect on basal SIRT5 desuccinylation activity (SIRT5 [1]): no statistically significant effects | thermal stability of SIRT2 (CETSA) (SIRT2): little effect on the thermal stability | thermal stability of SIRT5 (CETSA) (SIRT5 [2]): little effect on the thermal stability | Dox-induced dissipation of mitochondrial membrane potential (MMP) (H9c2 cells; JC-1): notably preserved | Dox-induced increase of ROS levels (H9c2 cells; pretreatment, DCFH-DA): effectively suppressed this increase
